Key:
dental plaque formation [1] = test: 8-day GCPI dental plaque quantification model, feeding food coated with ascorbyl palmitate solution; format: in vivo, dogs; details: four days
Experimental: Ascorbyl palmitate was assessed for its ability to inhibit dental plaque formation when applied indirectly, i.e., by feeding animals a pet food composition as described. In this experiment, the 8-day GCPI dental plaques quantification model of […] et al. was used ([…] et al. (2007) J. Vet. Dent. 24(1): 14-20). The teeth of the test animals are cleaned at the beginning of the study, after which the animals were fed either a control food (a commercially-available canine pet food composition) or the same food upon which a solution of ascorbyl palmitate in soybean oil was sprayed to a final concentration (w/w) of 0.1% of the total weight of the food. The food coated with the ascorbyl palmitate solution was fed to dogs over a period of four days and dental plaque accumulation was quantified and compared with their dental plaque accumulation while on the control food. […] The GCPI uses a scale of 0-100%.

dental plaque formation [2] = test: 24-hour plaque accumulation model, direct application to the teeth with a dental swab; format: in vivo, dog; details: dogs
Experimental: Ascorbyl palmitate was assessed for its ability to inhibit dental plaque in 24-hour plaque accumulation model, according to a modification of the method of […] et al. ([…] et al. (2007) J. Vet. Dent. 24(1): 14-20), in which the compound to be tested is directly applied to the teeth as a solution using a dental swab as applicator, and the dental plaque accumulation time was set at 24 hours. A solution of ascorbyl palmitate (0.3 g in 10 mL soybean oil) was administered to the cleaned buccal tooth and gingival surfaces of each dog using a dental swab, in such a manner that 0.3 g of ascorbyl palmitate was applied. Control animals were treated with soybean oil alone. Twenty-four hours after application, the accumulation of dental plaque was quantitatively evaluated using a standardized method designated as the gingival contour plaque index (“GCPI”). […] The GCPI uses a scale of 0-100%.

## CCCCCCCCCCCCCCCC(=O)OC[C@H](O)[C@H]1OC(=O)C(O)=C1O [ascorbyl palmitate]
Dental plaque formation [1]; dogs fed food sprayed with ascorbyl palmitate in soybean oil to 0.1% (w/w) of the food, GCPI scale 0-100%, control food 68.2±11.9
  Plaque accumulation average score (GCPI): 53.7±12.1%
Dental plaque formation [1]; dogs, food with 0.1% (w/w) ascorbyl palmitate
  improvement in plaque accumulation versus control food: 21.3%
Dental plaque formation [2]; 0.3 g applied directly, 24 hours
  improvement in plaque accumulation versus soybean oil control: 27.8%
Dental plaque formation [2]; 0.3 g in 10 mL soybean oil applied to cleaned buccal tooth and gingival surfaces, 24 hours after application, GCPI scale 0-100%, soybean oil control 24.9±9.4
  Plaque accumulation average score (GCPI): 18.9±9%

Source: patent US20140348897A1, “TREATMENT OR REDUCTION OF DENTAL CONDITIONS WITH ASCORBYL ESTERS” (HILL'S PET NUTRITION, INC., priority 2011, published 2014)
